The source of these data is ChEMBL document CHEMBL3785043, “Exploring the purine core of 3'-C-ethynyladenosine (EAdo) in search of novel nucleoside therapeutics” (Bioorg Med Chem Lett, 2016).

What is called IC50 is the midpoint of a concentration-inhibition curve. Broadly, the inhibition is the relative decrease from the control value, in per cent.

The source made the active and inactive calls. The calls are words filed in the database; no cut-off is given here.

The subject of the first assay is Influenza A virus. The assay is described as follows: Antiviral activity against Influenza virus A H3N2 at 100 uM. In kind it is functional, organism-based.
Settings: not given
`C#C[C@@]1(O)[C@@H](CO)O[C@@H](n2cnc3c(N)nc(Cl)nc32)[C@@H]1O`: the result was inactive.
Same read-out and setting: then `C#C[C@@]1(O)[C@@H](CO)O[C@@H](n2cnc3c(NC4CCCC4)nc(Cl)nc32)[C@@H]1O`, with “inactive”.

The subject of the next assay is Influenza B virus. Put plainly: Antiviral activity against Influenza virus B at 100 uM. In kind it is functional, organism-based.
Settings: not given
On to `C#C[C@@]1(O)[C@@H](CO)O[C@@H](n2cnc3c(N)nc(Cl)nc32)[C@@H]1O`, for which the outcome was inactive.
For the compound `C#C[C@@]1(O)[C@@H](CO)O[C@@H](n2cnc3c(NC4CCCC4)nc(Cl)nc32)[C@@H]1O`, the outcome was inactive.

The test system of the next assay is Mammalian orthoreovirus 1. The assay is described as follows: Antiviral activity against Reovirus 1 at 100 uM. In kind it is functional.
Settings: not given
Take `C#C[C@@]1(O)[C@@H](CO)O[C@@H](n2cnc3c(N)nc(Cl)nc32)[C@@H]1O`: the outcome was inactive.
As for `C#C[C@@]1(O)[C@@H](CO)O[C@@H](n2cnc3c(NC4CCCC4)nc(Cl)nc32)[C@@H]1O`, the outcome was inactive.

Another assay relates to Punta Toro virus. The assay is described as follows: Antiviral activity against Punta Toro virus at 100 uM.
Settings: not given
In kind it is functional, organism-based.
For the compound `C#C[C@@]1(O)[C@@H](CO)O[C@@H](n2cnc3c(N)nc(Cl)nc32)[C@@H]1O`, the outcome was inactive.
Same read-out and setting: then `C#C[C@@]1(O)[C@@H](CO)O[C@@H](n2cnc3c(NC4CCCC4)nc(Cl)nc32)[C@@H]1O`, with “inactive”.

In the next assay the test system is Human immunodeficiency virus 1. Put plainly: Antiviral activity against HIV1 3B infected in human MT4 cells at 100 uM preincubated with cells for 30 mins followed by HIV inoculation measured after 4 to 5 days by microscopic analysis. In kind it is functional, organism-based.
Settings: not given
As to `C#C[C@@]1(O)[C@@H](CO)O[C@@H](n2cnc3c(N)nc(Cl)nc32)[C@@H]1O`, the outcome was inactive.
On the same count and under the same terms, in the case of `C#C[C@@]1(O)[C@@H](CO)O[C@@H](n2cnc3c(NC4CCCC4)nc(Cl)nc32)[C@@H]1O` it was “inactive”.

Another assay relates to Human immunodeficiency virus 1. Put plainly: Antiviral activity against HIV 1 NL4-3 infected in human MT4 cells at 100 uM preincubated with cells for 30 mins followed by HIV inoculation measured after 4 to 5 days by microscopic analysis.
Settings: not given
In kind it is functional, organism-based.
Turning to `C#C[C@@]1(O)[C@@H](CO)O[C@@H](n2cnc3c(N)nc(Cl)nc32)[C@@H]1O`, the outcome was inactive.
For the compound `C#C[C@@]1(O)[C@@H](CO)O[C@@H](n2cnc3c(NC4CCCC4)nc(Cl)nc32)[C@@H]1O`, the outcome was inactive.

The test system of a further assay is Human immunodeficiency virus 2. The assay is described as follows: Antiviral activity against HIV2 ROD infected in human MT4 cells at 100 uM preincubated with cells for 30 mins followed by HIV inoculation measured after 4 to 5 days by microscopic analysis. In kind it is functional, organism-based. The following applies: ISOLATE ROD.
For `C#C[C@@]1(O)[C@@H](CO)O[C@@H](n2cnc3c(N)nc(Cl)nc32)[C@@H]1O`, the result was inactive.
The same measure, in the same setting: then `C#C[C@@]1(O)[C@@H](CO)O[C@@H](n2cnc3c(NC4CCCC4)nc(Cl)nc32)[C@@H]1O`, with “inactive”.

A further assay has as its system L1210. Put plainly: Cytostatic activity against mouse L1210 cells after 48 hrs by Coulter counter method. In kind it is functional, cell-based. The settings on record: L1210, 48 h.
For the compound `C#C[C@@]1(O)[C@@H](CO)O[C@@H](n2cnc3c(N)nc(Cl)nc32)[C@@H]1O`, half-maximal inhibition (IC50) required 167 µM.
As to `C#C[C@@]1(O)[C@@H](CO)O[C@@H](n2cnc3c(NC4CCCC4)nc(Cl)nc32)[C@@H]1O`, the 50% inhibitory concentration (IC50) was 170 µM.

The next assay has as its system CCRF-CEM. The assay is described as follows: Cytostatic activity against human CEM cells after 72 hrs by Coulter counter method. In kind it is functional, cell-based.
Settings: not given
Consider `C#C[C@@]1(O)[C@@H](CO)O[C@@H](n2cnc3c(N)nc(Cl)nc32)[C@@H]1O`, for which the 50% inhibitory concentration (IC50) is > 250 µM.
The same measure, in the same setting: then `C#C[C@@]1(O)[C@@H](CO)O[C@@H](n2cnc3c(NC4CCCC4)nc(Cl)nc32)[C@@H]1O`, with 104 µM.

The subject of a further assay is Sindbis virus. Put plainly: Antiviral activity against Sindbis virus at 100 uM. In kind it is functional, organism-based.
Settings: not given
Turning to `C#C[C@@]1(O)[C@@H](CO)O[C@@H](n2cnc3c(N)nc(Cl)nc32)[C@@H]1O`, the result was inactive.
As to `C#C[C@@]1(O)[C@@H](CO)O[C@@H](n2cnc3c(NC4CCCC4)nc(Cl)nc32)[C@@H]1O`, the result was inactive.

For the next assay, the system named is HeLa. The assay is described as follows: Cytostatic activity against human HeLa cells after 72 hrs by Coulter counter method. In kind it is functional, cell-based.
Settings: not given
Regarding `C#C[C@@]1(O)[C@@H](CO)O[C@@H](n2cnc3c(N)nc(Cl)nc32)[C@@H]1O`, the IC50 was > 250 µM.
`C#C[C@@]1(O)[C@@H](CO)O[C@@H](n2cnc3c(NC4CCCC4)nc(Cl)nc32)[C@@H]1O`: the IC50 came out at 150 µM.

For a further assay, the target named is Adenosine receptor A3 (Homo sapiens) (UniProt P0DMS8). Put plainly: Agonist activity at adenosine A3 receptor (unknown origin) assessed as inhibition of forskolin-stimulated adenylyl cyclase activity at 10 uM.
Sequence of Adenosine receptor A3 (Homo sapiens) (P0DMS8 whole entry): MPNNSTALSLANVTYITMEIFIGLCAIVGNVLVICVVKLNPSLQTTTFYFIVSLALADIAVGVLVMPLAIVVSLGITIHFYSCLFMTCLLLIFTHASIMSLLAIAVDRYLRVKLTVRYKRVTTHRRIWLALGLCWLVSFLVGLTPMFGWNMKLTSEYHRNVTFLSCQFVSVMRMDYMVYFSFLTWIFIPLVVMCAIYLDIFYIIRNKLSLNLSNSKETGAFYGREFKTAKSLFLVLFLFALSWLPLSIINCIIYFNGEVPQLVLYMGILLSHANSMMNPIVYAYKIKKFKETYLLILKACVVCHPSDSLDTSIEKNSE
Settings: not given
In kind it is functional.
As to `C#C[C@@]1(O)[C@@H](CO)O[C@@H](n2cnc3c(NC4CCCC4)nc(Cl)nc32)[C@@H]1O`, the inhibition was found to be 70%.

The test system of the next assay is Human alphaherpesvirus 1. The assay is described as follows: Antiviral activity against Aciclovir-resistant thymidine kinase-deficient HSV-1 KOS at 100 uM. In kind it is functional, organism-based.
Settings: not given
With `C#C[C@@]1(O)[C@@H](CO)O[C@@H](n2cnc3c(N)nc(Cl)nc32)[C@@H]1O`, the result was inactive.
`C#C[C@@]1(O)[C@@H](CO)O[C@@H](n2cnc3c(NC4CCCC4)nc(Cl)nc32)[C@@H]1O`: the outcome was inactive.

The subject of another assay is Human betaherpesvirus 5. The assay is described as follows: Antiviral activity against Human cytomegalovirus AD169 at 100 uM. In kind it is functional, organism-based.
Settings: not given
Turning to `C#C[C@@]1(O)[C@@H](CO)O[C@@H](n2cnc3c(N)nc(Cl)nc32)[C@@H]1O`, the result was inactive.
Regarding `C#C[C@@]1(O)[C@@H](CO)O[C@@H](n2cnc3c(NC4CCCC4)nc(Cl)nc32)[C@@H]1O`, the result was inactive.

The next assay deals with Human betaherpesvirus 5. The assay is described as follows: Antiviral activity against Human cytomegalovirus Davis at 100 uM.
Settings: not given
In kind it is functional, organism-based.
`C#C[C@@]1(O)[C@@H](CO)O[C@@H](n2cnc3c(N)nc(Cl)nc32)[C@@H]1O`: the outcome was inactive.
Still for that read-out and setting: in the case of `C#C[C@@]1(O)[C@@H](CO)O[C@@H](n2cnc3c(NC4CCCC4)nc(Cl)nc32)[C@@H]1O` it was “inactive”.

The next assay has as its system Vesicular stomatitis virus. The assay is described as follows: Antiviral activity against VSV at 100 uM. In kind it is functional, organism-based.
Settings: not given
Turning to `C#C[C@@]1(O)[C@@H](CO)O[C@@H](n2cnc3c(N)nc(Cl)nc32)[C@@H]1O`, the outcome was inactive.
In the case of `C#C[C@@]1(O)[C@@H](CO)O[C@@H](n2cnc3c(NC4CCCC4)nc(Cl)nc32)[C@@H]1O`, the result was inactive.

The next assay concerns Human alphaherpesvirus 1. The assay is described as follows: Antiviral activity against HSV-1 KOS at 100 uM.
Settings: not given
In kind it is functional, organism-based.
Turning to `C#C[C@@]1(O)[C@@H](CO)O[C@@H](n2cnc3c(N)nc(Cl)nc32)[C@@H]1O`, the result was inactive.
The same measure, in the same setting: in the case of `C#C[C@@]1(O)[C@@H](CO)O[C@@H](n2cnc3c(NC4CCCC4)nc(Cl)nc32)[C@@H]1O` it was “inactive”.

For a further assay, the system named is Human alphaherpesvirus 2. The assay is described as follows: Antiviral activity against HSV-2 lyons at 100 uM.
Settings: not given
In kind it is functional, organism-based.
Take `C#C[C@@]1(O)[C@@H](CO)O[C@@H](n2cnc3c(N)nc(Cl)nc32)[C@@H]1O`: the outcome was inactive.
On the same count and under the same terms, then `C#C[C@@]1(O)[C@@H](CO)O[C@@H](n2cnc3c(NC4CCCC4)nc(Cl)nc32)[C@@H]1O`, with “inactive”.

The subject of the next assay is Human alphaherpesvirus 2. The assay is described as follows: Antiviral activity against HSV-2 G at 100 uM. The settings on record: strain G. In kind it is functional, organism-based.
As to `C#C[C@@]1(O)[C@@H](CO)O[C@@H](n2cnc3c(N)nc(Cl)nc32)[C@@H]1O`, the result was inactive.
Turning to `C#C[C@@]1(O)[C@@H](CO)O[C@@H](n2cnc3c(NC4CCCC4)nc(Cl)nc32)[C@@H]1O`, the result was inactive.

In a further assay the test system is Human adenovirus 2. Put plainly: Antiviral activity against Adenovirus 2 at 100 uM.
Settings: not given
In kind it is functional, organism-based.
For the compound `C#C[C@@]1(O)[C@@H](CO)O[C@@H](n2cnc3c(N)nc(Cl)nc32)[C@@H]1O`, the result was inactive.
For the compound `C#C[C@@]1(O)[C@@H](CO)O[C@@H](n2cnc3c(NC4CCCC4)nc(Cl)nc32)[C@@H]1O`, the outcome was inactive.

For another assay, the system named is Respiratory syncytial virus. Put plainly: Antiviral activity against Respiratory syncytial virus long at 100 uM. In kind it is functional, organism-based.
Settings: not given
For the compound `C#C[C@@]1(O)[C@@H](CO)O[C@@H](n2cnc3c(N)nc(Cl)nc32)[C@@H]1O`, the result was inactive.
Consider `C#C[C@@]1(O)[C@@H](CO)O[C@@H](n2cnc3c(NC4CCCC4)nc(Cl)nc32)[C@@H]1O`, for which the result was inactive.

Another assay has as its system Coxsackievirus B4. The assay is described as follows: Antiviral activity against Coxsackie B4 virus at 100 uM. In kind it is functional, organism-based.
Settings: not given
In the case of `C#C[C@@]1(O)[C@@H](CO)O[C@@H](n2cnc3c(N)nc(Cl)nc32)[C@@H]1O`, the outcome was inactive.
Regarding `C#C[C@@]1(O)[C@@H](CO)O[C@@H](n2cnc3c(NC4CCCC4)nc(Cl)nc32)[C@@H]1O`, the result was inactive.

Another assay has as its system Human respirovirus 3. The assay is described as follows: Antiviral activity against parainfluenza virus 3 at 100 uM. In kind it is functional, organism-based.
Settings: not given
Take `C#C[C@@]1(O)[C@@H](CO)O[C@@H](n2cnc3c(N)nc(Cl)nc32)[C@@H]1O`: the result was inactive.
In the case of `C#C[C@@]1(O)[C@@H](CO)O[C@@H](n2cnc3c(NC4CCCC4)nc(Cl)nc32)[C@@H]1O`, the result was inactive.

The test system of a further assay is Influenza A virus. The assay is described as follows: Antiviral activity against Influenza virus A H1N1 at 100 uM. In kind it is functional, organism-based.
Settings: not given
In the case of `C#C[C@@]1(O)[C@@H](CO)O[C@@H](n2cnc3c(N)nc(Cl)nc32)[C@@H]1O`, the outcome was inactive.
With `C#C[C@@]1(O)[C@@H](CO)O[C@@H](n2cnc3c(NC4CCCC4)nc(Cl)nc32)[C@@H]1O`, the result was inactive.
